{"source": "patent US20260294885A1", "about": "“TREATMENT OF INFLAMMATORY CONDITIONS COMPRISING IMU-856” (IMMUNIC AG, priority 2023, published 2026)", "key": {"[1]": {"test_system": "patients with celiac disease", "experiment": "Patient-reported symptoms with gluten challenge (Celiac Disease Symptom Diary), Part C", "format": "in vivo, human", "set-up": "key to mean change in bloating / mean change in tiredness: change on 5-point severity scale (1=none to 5=very severe)", "conditions": "for mean change in abdominal pain (SD) / mean change in diarrhea (SD) / mean change in nausea (SD): last day before to first day of gluten challenge, CDSD 5-point scale", "excerpt": "In an embodiment, the celiac disease patient is experiencing one or more symptoms as assessed by the CDSD Version 2.1® (ImmunogenX LLC) at the start of treatment with IMU-856 or a pharmaceutically acceptable salt or a solvate thereof. The CDSD questionnaire was developed to assess symptom severity in clinical trials in subjects with celiac disease. The CDSD includes five symptoms (diarrhea, abdominal pain, bloating, nausea, tiredness) asking participants about the severity of celiac disease symptoms they experience each day. Subjects rate their symptom severity on a 5-point scale (1=none, 2=mild, 3=moderate, 4=severe, 5=very severe). In various embodiments, the celiac disease patient is experiencing one or more significant or severe symptomatic days (based on CDSD) at the start of treatment with IMU-856 or a pharmaceutically acceptable salt or a solvate thereof.\nImprovement in clinical symptoms of gluten exposure: On the first day of gluten challenge, the placebo group (N=12) experienced a marked average increase in symptoms, as assessed by the Celiac Disease Symptom Diary using a 5-point scale of 0.8 for nausea, 0.8 for abdominal pain, and 0.8 diarrhea. In contrast, among the pooled IMU-856 arms (N=26), these average increases were only 0.4 for nausea, 0.5 for abdominal pain and 0.6 for diarrhea."}, "[2]": {"test_system": "CaCo2 cells", "experiment": "In vitro intestinal barrier function model (TEER, Example 2)", "format": "cell-based, human", "conditions": "compared to vehicle control, after 4 h chemical challenge", "excerpt": "CaCo2 cell line is derived from human epithelial cells from the colon. They are frequently used to mimic intestinal barrier function to either look at permeability of drugs or to look at is functional resistance. For the present experiment, the CaCo2 cells were used to mimic the loss of its barrier function upon challenging the cells with [COMPOUND LEFT OUT] sulfonic acid [COMPOUND LEFT OUT] and investigate the effect of IMU-856 on this by measuring the electrical transepithelial resistance (TEER). […] For this CaCo2 cells, cultivated in a 6-well trans well plate on top of the membrane that has small pores that prevent the cells from going through but allow molecules and nutrients to pass. After 3 weeks, when the TEER is stable, the monolayer is challenged with 0.25% [COMPOUND LEFT OUT] stimulation for 4 h. Then, cells were washed and fresh medium with vehicle or IMU-856 was given. TEER was measured before and after challenge at different time points. For correct measurement, the shorter electrode is inserted into the transwell chamber (without touching the cells), and the longer electrode is inserted in the outer well."}, "[3]": {"test_system": "patients with celiac disease", "experiment": "Duodenal biopsy histology with gluten challenge (villous height, Vh:Cd, Q-MARSH), Part C", "format": "in vivo, human", "conditions": "for reduction in villous height: two weeks of 6 g/day gluten challenge; for mean change in villous height: baseline to Day 29, gluten challenge 6 g/day", "method": "In Part A, healthy subjects were randomised to single ascending doses of IMU-856 (10 mg to 160 mg) or placebo. In Part B healthy subjects were randomised to multiple once-daily doses of IMU-856 (40, 80, and 160 mg) or placebo for 14 days. Part C randomised patients with celiac disease who were on a gluten-free diet to multiple once-daily doses of IMU-856 (80 mg and 160 mg) or placebo for 28 days; a once-daily gluten challenge (6 g) was introduced on Day 14 and ended on Day 28. 71 healthy subjects were enrolled in Part A and B (N=19 placebo and N=52 IMU-856) and 43 patients with CelD in Part C (N=14 placebo; N=14 for 80 mg, and N=15 for 160 mg). In Parts A and B, treatment-emergent adverse events (TEAEs) occurred in 24 (73%) and 15 (79%) of subjects receiving any dose of IMU-856 compared to 6 (50%) and 5 (71%) with placebo, respectively. […] In Part C, the most common adverse events with any dose of IMU-856 by preferred term were headache (13 [45%]), nausea (9 [31%]), diarrhoea (8 [28%]), and abdominal distension (7 [24%]). […] In Part C, the mean change in villous height from baseline to Day 29 with 80 mg and 160 mg was −20.9±34.8 μm, and −22.5±51.1 μm, respectively, and −60.3±52.2 μm with placebo. […] Mean change in plasma citrulline increased with 80 mg and 160 mg from baseline to Day 14 (2.4±6.2 and 6.1±5.9 μmol/L, respectively) and from baseline to Day 29 (2.8±7.6 and 2.2±5.3 μmol/L, respectively), but not with placebo (−2.7±5.6 and −4.0±6.5 μmol/L). […] Mean increase in zinc levels from baseline to Day 29 with 80 mg and 160 mg were 0.3±1.4 and 0.9±2.1 μmol/L compared to a mean decrease in placebo (−0.9±2.1 μmol/L). Gluten-induced symptoms were also attenuated by IMU-856.\nFIG. 1 illustrates the flow chart of part C in celiac disease (CelD) designed as proof-of-concept study with a gluten challenge trial. Part C was planned to include a well-controlled celiac disease patient population: The patients were 100% seronegative, indicating absence of ongoing substantial gluten exposure and was performed at sites in Australia and New Zealand. Part C was designed to assess safety, tolerability and pharmacokinetics of IMU-856 and measured also histologic changes, blood biomarkers, nutrient uptake and disease-related symptoms."}, "[4]": {"test_system": "dextran sodium sulphate (DSS)-induced colitis", "experiment": "DSS-induced colitis model in mice (different settings)", "format": "in vivo", "conditions": "different settings of DSS colitis model"}, "[5]": {"test_system": "claudin (Cldn)-1", "experiment": "Tight junction protein claudin-1 in a TEER model", "format": "cell-based, human", "excerpt": "In one TEER model, tight junction (TJ)-related proteins were investigated, and a normalisation of TJ proteins (claudin (Cldn)-1 and claudin-2) was observed."}, "[6]": {"conditions": "160 mg (N 11), Day 14 to Day 29"}, "[7]": {"conditions": "160 mg (N 13), Day 13 to Day 14"}, "[8]": {"conditions": "All Active (N 20), Day 14 to Day 29"}, "[9]": {"conditions": "All Active (N 26), Day 13 to Day 14"}, "[10]": {"conditions": "continued treatment during gluten challenge"}}, "note": "Entries after “also recorded” stand apart in the source; their conditions may differ."}
{"smiles": "Cn1c(COc2cc(C(F)(F)F)ccn2)nnc1[C@H]1CC[C@H](c2cnn([C@H]3CC[C@H](N4CC5(CCO5)C4)CC3)c2)CC1", "note": "[IMU-856, 6-(trans-4-(4-(trans-4-(4-methyl-5-(((4-(trifluoromethyl)pyridin-2-yl)oxy)methyl)-4H-1,2,4-triazol-3-yl)cyclohexyl)-1H-pyrazol-1-yl)cyclohexyl)-1-oxa-6-azaspiro[3.3]heptane]", "values": [{"measurement": "mean change in bloating", "setting": "[1]; 80 mg (N 9), Day 14 to Day 29", "result": "−0.4"}, {"measurement": "mean change in tiredness", "setting": "[1]; 80 mg (N 9), Day 14 to Day 29", "result": "−0.1"}, {"measurement": "mean change in bloating", "setting": "[1]; 80 mg (N 13), Day 13 to Day 14", "result": 0.3}, {"measurement": "mean change in tiredness", "setting": "[1]; 80 mg (N 13), Day 13 to Day 14", "result": 0.2}, {"measurement": "mean change in abdominal pain (SD)", "setting": "[1]; 80 mg (N = 13)", "result": "0.5 (0.78)"}, {"measurement": "mean change in diarrhea (SD)", "setting": "[1]; 80 mg (N = 13)", "result": "0.5 (0.97)"}, {"measurement": "mean change in nausea (SD)", "setting": "[1]; 80 mg (N = 13)", "result": "0.2 (0.69)"}, {"measurement": "mean change in bloating", "setting": "[1]; [6]", "result": "−0.5"}, {"measurement": "mean change in tiredness", "setting": "[1]; [6]", "result": "−0.5"}, {"measurement": "mean change in bloating", "setting": "[1]; [7]", "result": 0.5}, {"measurement": "mean change in tiredness", "setting": "[1]; [7]", "result": 0.5}, {"measurement": "mean change in abdominal pain (SD)", "setting": "[1]; 160 mg (N = 13)", "result": "0.4 (0.87)"}, {"measurement": "mean change in diarrhea (SD)", "setting": "[1]; 160 mg (N = 13)", "result": "0.6 (1.12)"}, {"measurement": "mean change in nausea (SD)", "setting": "[1]; 160 mg (N = 13)", "result": "0.7 (1.03)"}, {"measurement": "mean change in bloating", "setting": "[1]; [8]", "result": "−0.5"}, {"measurement": "mean change in tiredness", "setting": "[1]; [8]", "result": "−0.3"}, {"measurement": "mean change in bloating", "setting": "[1]; [9]", "result": 0.4}, {"measurement": "mean change in tiredness", "setting": "[1]; [9]", "result": 0.3}, {"measurement": "gluten-induced symptoms", "setting": "[1]; Part C", "result": "attenuated"}, {"measurement": "symptoms (nausea, abdominal pain or diarrhea)", "setting": "[1]; after first day of gluten challenge (Day 14), versus placebo", "result": "fewer symptoms"}, {"measurement": "patient-reported ability to perform daily activities", "setting": "[1]; [10]", "result": "improvement"}, {"measurement": "recovery from bloating symptoms", "setting": "[1]; [10]", "result": "recover to a higher extent; also recorded: improvement"}, {"measurement": "recovery from tiredness symptoms", "setting": "[1]; [10]", "result": "recover to a higher extent; also recorded: improvement"}, {"measurement": "protection against acute gluten-induced symptoms", "setting": "[1]; first day of gluten challenge", "result": "initial signal of protection against acute gluten-induced symptoms"}, {"measurement": "protection against chronic gluten-induced symptoms", "setting": "[1]; human, in vivo", "result": "initial signal of protection against chronic gluten-induced symptoms"}, {"measurement": "TEER", "setting": "[2]", "result": "higher TEER"}, {"measurement": "TEER recovery rate", "setting": "[2]", "result": "higher recovery rate"}, {"measurement": "reduction in villous height", "setting": "[3]; 80 mg (N=11)", "result": 20.9, "unit": "μm"}, {"measurement": "mean change in villous height", "setting": "[3]; 80 mg once daily", "result": "−20.9±34.8", "unit": "μm"}, {"measurement": "reduction in villous height", "setting": "[3]; 160 mg (N=13)", "result": 22.5, "unit": "μm"}, {"measurement": "mean change in villous height", "setting": "[3]; 160 mg once daily", "result": "−22.5±51.1", "unit": "μm"}, {"measurement": "villous height protection versus placebo", "setting": "[3]; Baseline to Day 29", "result": "protects villous height as compared to placebo, reaching statistical significance"}, {"measurement": "patients with improvement in one Q-MARSH category", "setting": "[3]; Day 29, after gluten challenge", "result": "two and Two"}, {"measurement": "Q-MARSH histological damage", "setting": "[3]; change in Q-MARSH score between Baseline and Day 29", "result": "signals of preventing histological damage"}, {"measurement": "colon length", "setting": "[4]", "result": "increasing colon length"}, {"measurement": "colon mucosal histology", "setting": "[4]", "result": "improving colon mucosal histology"}, {"measurement": "diarrhea symptoms", "setting": "[4]", "result": "improving diarrhea symptoms"}, {"measurement": "disease severity", "setting": "[4]", "result": "reducing disease severity"}, {"measurement": "claudin-1", "setting": "[5]", "result": "normalisation"}]}
